Results: ChEMBL document CHEMBL5034000, “Novel Bisubstrate Inhibitors for Protein N-Terminal Acetyltransferase D” (J Med Chem, 2021)
Each block holds one compound with its values, some of them ahead of it. The source made the active and inactive calls. The rule behind the calls is not given here. Where a SMILES comes first, the peptide text is derived from it. [ ]: non-standard residue; d: D form. The star is where a group is joined. X2 = CC(C)(COP(=O)(O)OP(=O)(O)OC[C@H]1O[C@@H](n2cnc3c(N)ncnc32)[C@H](OP(=O)(O)O)[C@@H]1O)C(O)C(=O)NCCC(=O)NCC*; Mpa = O=C(O)CCS

How the values were obtained:
[1] = Drug uptake in digitonin treated human HCT116 cells measured at 100 uM after 2 hrs of incubation by MALDI-MS; assay type: ADME, cell-based; settings: hct-116, 2 h
[2] = target: T1, Histone acetyltransferase KAT8 (Homo sapiens) (UniProt Q9H7Z6); experiment: Inhibition of human MOF using AcCoA and H4 peptide as substrate at 1 uM incubated for 20 min at room temperature relative to control
T1 sequence (whole entry): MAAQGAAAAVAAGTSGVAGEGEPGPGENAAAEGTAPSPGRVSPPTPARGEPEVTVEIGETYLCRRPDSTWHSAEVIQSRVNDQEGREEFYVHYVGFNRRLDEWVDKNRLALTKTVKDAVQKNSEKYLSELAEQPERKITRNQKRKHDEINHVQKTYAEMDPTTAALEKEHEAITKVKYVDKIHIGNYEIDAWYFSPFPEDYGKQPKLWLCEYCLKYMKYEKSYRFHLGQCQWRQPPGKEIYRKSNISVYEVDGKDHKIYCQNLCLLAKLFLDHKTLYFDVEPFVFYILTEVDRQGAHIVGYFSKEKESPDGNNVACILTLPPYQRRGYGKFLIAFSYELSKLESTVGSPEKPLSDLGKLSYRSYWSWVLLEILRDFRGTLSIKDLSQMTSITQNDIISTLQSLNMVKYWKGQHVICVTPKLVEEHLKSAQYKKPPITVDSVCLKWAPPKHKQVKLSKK

Homo sapiens [3] = species on record: Homo sapiens; experiment: Inhibition of human NatA using AcCoA and H4 peptide as substrate at 1 uM incubated for 12 min at room temperature relative to control
[4] = target: Histone acetyltransferase KAT2B (Homo sapiens) (UniProt Q92831); experiment: Inhibition of human PCAF using AcCoA and H4 peptide as substrate at 10 uM incubated for 20 min at room temperature
Chain of Histone acetyltransferase KAT2B (Homo sapiens) (Q92831 whole entry, looked up): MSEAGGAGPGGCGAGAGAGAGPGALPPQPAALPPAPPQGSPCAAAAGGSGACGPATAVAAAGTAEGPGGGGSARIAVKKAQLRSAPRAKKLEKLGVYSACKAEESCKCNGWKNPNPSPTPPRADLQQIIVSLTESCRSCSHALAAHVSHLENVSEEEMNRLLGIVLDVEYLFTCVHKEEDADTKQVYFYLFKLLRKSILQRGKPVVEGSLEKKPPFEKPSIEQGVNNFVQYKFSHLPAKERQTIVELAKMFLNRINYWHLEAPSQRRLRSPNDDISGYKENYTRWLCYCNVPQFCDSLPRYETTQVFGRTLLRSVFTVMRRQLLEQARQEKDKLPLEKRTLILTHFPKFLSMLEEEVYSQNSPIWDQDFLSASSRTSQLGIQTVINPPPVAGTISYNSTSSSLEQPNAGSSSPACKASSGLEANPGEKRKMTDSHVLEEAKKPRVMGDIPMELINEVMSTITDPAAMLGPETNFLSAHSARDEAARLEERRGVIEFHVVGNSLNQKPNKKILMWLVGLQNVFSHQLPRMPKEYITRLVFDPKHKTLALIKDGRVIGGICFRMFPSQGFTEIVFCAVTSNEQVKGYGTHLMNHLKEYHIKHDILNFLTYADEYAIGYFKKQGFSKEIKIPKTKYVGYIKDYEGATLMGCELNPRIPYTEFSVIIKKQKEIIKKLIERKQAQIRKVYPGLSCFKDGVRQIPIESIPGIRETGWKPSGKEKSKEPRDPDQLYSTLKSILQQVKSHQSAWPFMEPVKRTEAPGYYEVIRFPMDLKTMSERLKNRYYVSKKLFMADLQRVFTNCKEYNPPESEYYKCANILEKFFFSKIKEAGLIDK

[5] = tested on: NatC (Schizosaccharomyces pombe); experiment: Inhibition of Schizosaccharomyces pombe NatC using AcCoA and MLRF peptide as substrate at 10 uM incubated for 5 min at room temperature
Homo sapiens [6] = species on record: Homo sapiens; experiment: Selectivity ratio of inhibition of human NatA to inhibition of human NatD
[7] = tested on: NatC (Schizosaccharomyces pombe); experiment: Selectivity ratio of inhibition of Schizosaccharomyces pombe NatC to inhibition of human NatD
[8] = target: N-alpha-acetyltransferase 40 (Homo sapiens) (UniProt Q86UY6); experiment: Non-competitive inhibition of human NatD using various concentration of [14C]acetyl-CoA and fixed human H4 peptide as substrate measured after 13 mins radioactive assay
[9] = target: N-alpha-acetyltransferase 40 (Homo sapiens) (UniProt Q86UY6); settings: HCT-116, Lysate, dose 100.0 µM, time 2.0 hrs
Homo sapiens [10] = species on record: Homo sapiens; experiment: Inhibition of human NatB using AcCoA and MDVF peptide as substrate at 10 uM incubated for 10 min at room temperature
[11] = target: T2, N-alpha-acetyltransferase 50 (Homo sapiens) (UniProt Q9GZZ1); experiment: Inhibition of human NatE using AcCoA and MLGP peptide as substrate at 10 uM incubated for 40 min at room temperature
T2 sequence (whole entry): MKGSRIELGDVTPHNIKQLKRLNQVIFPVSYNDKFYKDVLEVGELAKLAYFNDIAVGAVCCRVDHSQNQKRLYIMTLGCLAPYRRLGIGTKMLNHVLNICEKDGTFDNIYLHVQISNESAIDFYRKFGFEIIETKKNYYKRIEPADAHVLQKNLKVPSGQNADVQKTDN

Homo sapiens [12] = species on record: Homo sapiens; experiment: Selectivity ratio of inhibition of human MOF to inhibition of human NatD

Drug uptake [1]: Active
Structure (SMILES): CC(C)(COP(=O)(O)OP(=O)(O)OC[C@H]1O[C@@H](n2cnc3c(N)ncnc32)[C@H](OP(=O)(O)O)[C@@H]1O)C(O)C(=O)NCCC(=O)NCCSCCC(=O)N[C@@H](CO)C(=O)NCC(=O)N[C@@H](CCCNC(=N)N)C(=O)NCC(N)=O (stereo partly drawn)

Structure (SMILES): CC(C)(COP(=O)(O)OP(=O)(O)OC[C@H]1O[C@@H](n2cnc3c(N)ncnc32)[C@H](OP(=O)(O)O)[C@@H]1O)C(O)C(=O)NCCC(=O)NCCSCCC(=O)N[C@@H](CO)C(=O)NCC(=O)N[C@@H](CCCNC(=N)N)C(=O)NCC(=O)N[C@@H](CCCCN)C(N)=O (stereo partly drawn) ([Mpa](X2)SGRGK-NH2)
inhibition [2]: 10%
inhibition (Homo sapiens [3]): 10%
inhibition [4]: inactive
inhibition [5]: inactive
Selectivity ratio (Homo sapiens [6]): 1000
Selectivity ratio [7]: 10000
Drug uptake [1]: Active
alphaKi [8]: 2.1 nM
deltaT [9]: 1.7 °C
inhibition (Homo sapiens [10]): inactive
inhibition [11]: inactive
Selectivity ratio (Homo sapiens [12]): 1000
